For data set [1], the system named is HepG2 human liver cancer cell line. The data set can be described thus: Cytotoxicity in HepG2 cells (ATP viability assay). It is filed as cell-based. Particulars: 48 h. As to the method:
Compounds were dissolved at the concentration of 50 mM in DMSO.
DMSO normalisation at 1.0% was performed in each well.
Cell viability was evaluated by measuring ATP levels using CellTiter Glo (Promega Cat.n. G7570) according to manufacturer’s instructions.

The nature of data set [2]: Blood-brain barrier permeability (PAMPA-BBB). The data set is classed as in vitro ADME. Particulars: for Papp: PBS pH 7.4, read-out: BBB-Pe; for CNS Class: classified by Pe; for permeability (Pe) times higher compared to tolcapone: relative to tolcapone. As to the method: (§1) The assay combines solubility and a non-cell-based Blood Brain Barrier permeability assay (Parallel Artificial Membrane Permeation Assay; PAMPA-BBB) into a single workflow in which a portion of the filtrate from the Solubility filter plate is added to the donor compartment of the MultiScreen filter plate for the PAMPA-BBB analysis. […] Solutions were filtered into a 96-well collection plate using vacuum filtration and then analysed by UV/Vis spectroscopy. The relative solubility was then calculated using the sum of the recorded values as compared to a standard calibration curve. […] PAMPA-BBB determination was carried out in a 96-well MultiScreen Permeability plate and the ability of a compound to diffuse from a Donor to an Acceptor compartment separated by a Porcine Brain Lipid Extract (PBLE) dissolved in dodecane (20 mg/mL) layer on a PVDF membrane support was measured. The assay was performed in duplicate in PBS at pH 7.4 and the analysis is carried out by UV/Vis spectroscopy.
The compounds are classified into 2 types: CNS+ compounds that can cross the BBB and CNS- compounds that cannot according to the Pe values (BBB−, Pe < 2 × 10^−6 cm/s; BBB +/−, 2 × 10^−6 cm/s < Pe < 4 × 10^−6 cm/s; BBB+, Pe > 4 × 10^−6 cm/s).
Membrane retention is also evaluated according to Equation (1), (1) 1−Rm=CAccVAcc+CDonorVDonor/Sol×VDonor where Rm is the membrane retention factor. 1 − Rm between 1.2 and 0.8 is considered fully acceptable for the reliability of the results.

Data set [3] can be described thus: Caco-2 intestinal permeability. Particulars: human; for efflux ratio at 60 min, 10 μM: Caco-2, pH 7.4, without inhibitor, read-out: Efflux Ratio (Papp BA/Papp AB); for Papp A→B at 60 min, 10 μM / Papp B→A at 60 min, 10 μM: Caco-2, pH 7.4. It is filed as in vitro ADME, human. The protocol: Caco-2 cells (cod. HTB-37) were bought from ATCC (American Type Culture Collection, Rockville, MD, USA). Caco-2 cells were cultured for 21 days on a 24 trans-well plate to reach the right confluence and differentiate until the formation of the intestinal epithelium mimetic monolayer. The test substance permeability was measured in both directions (apical to basolateral [A→B] and basolateral to apical [B→A]) across the cell monolayer. The assay was carried out in HBSS transport medium at pH 7.4. Test substance at single concentration (10 μM) was tested in duplicate at one time point (60 min). Monolayer integrity of Caco-2 cells was evaluated by TEER measurements during the experiment and by Lucifer Yellow test after the incubation with the test compound. The concentrations of the test substance and/or reference controls were measured by LC-MS/MS.
When the inhibitor leads the efflux ratio to a significant reduction (>50%) or to unity, the test compound is classified as a probable substrate of that efflux transporter. As control, the modulation of the efflux ratio of a reference known substrate (Digoxin) was evaluated with or without the respectively inhibitors in every experiment. […] In parallel, mass balance (%) of recovered test substance was also determined. […] Outside these ranges the permeability data is not reliable.
(In general: Caco-2 cells form a polarised layer with tight junctions and transporters.)

The nature of data set [4]: Chromatographic Hydrophobicity Index (CHI). It is filed as physicochemical. The text has this: The assay is a chromatographic fast gradient reversed-phase method which allows to characterize the lipophilicity of compounds in high throughput screening regime at three different pH values (2.0; 7.4; 10.5). The so defined CHI is obtained from the gradient (buffer/Acetonitrile) retention time after calibrating the chromatographic system with a test mixture of ten known standard compounds. For most compounds, CHI is between 0 and 100 and it approximates the percentage (by volume) of acetonitrile required to achieve an equal distribution of compound between the mobile and the lipophilic stationary phase of a C18 chromatographic column. Compounds that are not retained on the column are assigned to a CHI value < 0, which means very low lipophilicity. For highly lipophilic compounds, which are strongly retained by the column, a CHI value of >100 is assigned. For any value in between, the actual CHI value is calculated based on the calibration line of the reference compounds [49].

A further data set addresses TTR (Homo sapiens, UniProt P02766). The data set can be described thus: Isothermal titration calorimetry (ITC), one-binding-site model. Particulars: single-binding-site model, 25 °C; for Kd: pH 7.4, 5% DMSO. Set-up: made in house; host or cells: E. coli BL21; ∆S: unit not given here. The protocol:
At an absorbance value of 600 nm around 0.3, the temperature was shifted to 30 °C.
Data were fitted using the “one-binding-site model” of the Malvern version of ORIGIN v.7. The heat of binding (ΔH), the stoichiometry (n), entropy (ΔS) and the dissociation constant (Kd) were then calculated from plots of the heat evolved per mole of ligand injected versus the molar ratio of ligand to protein using the software provided by the vendor (Table 3). Sample preparation is detailed below. […] A 10 µM protein stock in 2× buffer was then prepared and diluted 1:1 with a 10% DMSO solution, to obtain a 5 µM TTR solution in 1× buffer A and 5% DMSO. Different protein concentrations (3–5 µM) assayed in the replicates were prepared accordingly, starting from a 2× protein solution in 2× buffer A. Each ligand was dissolved in 100% DMSO and a 2 mM stock solution in 100% DMSO was prepared. A 200 µM compound solution was obtained in 10% DMSO and diluted 1:1 with 2× buffer A, to obtain a 100 µM ligand solution to be used for the ITC assays (in 1× buffer A and 5% DMSO).
(In general: In ITC the heat of successive injections is recorded.)

Data set [5] is described as follows: Kinetic solubility in PBS. The data set is classed as physicochemical. Particulars: Phosphate Buffered Saline (PBS), aqueous buffer, kinetic from dmso stock, PBS pH 7.4, 1% DMSO. As to the method: as §1

Several values for one entry are separate records, joined by “and”; a condition that tells them apart may be missing. Equal values may be shown once.

A word on the EC50: it is the concentration giving half of the maximal effect. The Papp A→B is how fast a substance crosses the layer from the apical side. In general, Papp B→A refers to the apparent permeability from the basolateral to the apical side of a cell layer. By Kd is commonly meant the free concentration of one partner at which half of the binding sites on the other are occupied at equilibrium, for simple one-to-one binding. The term solubility denotes how much of the substance goes into solution per volume. As to `COc1cc(C(=O)c2ccc(C)cc2)cc([N+](=O)[O-])c1O` [3-OMT, 3-O-methyltolcapone], it took 262 ± 20.7 µM to reach a half-maximal effect in data set [1] (EC50). In data set [2], the “1-Rm (membrane retention)” value is 0.9; the Papp is 14.4 ×10⁻⁶ cm/s; the “CNS Class” value is on record as “CNS+ (BBB+, Pe > 4 × 10^−6 cm/s)”; the “permeability (Pe) times higher compared to tolcapone” value (“permeability … compared to tolcapone” for short) was determined as 2.5 times. This compound also yielded a recovery at 60 min, 10 µM in data set [3] (Caco-2, pH 7.4, A→B) of 66 ± 4%. This compound also gave a recovery at 60 min, 10 µM in data set [3] (Caco-2, pH 7.4, B→A) of 83 ± 8%. In data set [3], the efflux ratio at 60 min, 10 μM came out at 1.5; the Papp A→B at 60 min, 10 μM worked out at 16 ± 2.9 ×10⁻⁶ cm/s; the Papp B→A at 60 min, 10 μM was determined as 24.3 ± 3 ×10⁻⁶ cm/s. In data set [4], the “CHI (pH 2.0)” value is 89.2, the “CHI (pH 7.4)” value stood at 50.2 and the “CHI (pH 10.5)” value came out at 46.0. In addition, at TTR, the “n (stoichiometry of binding, ligand:TTR tetramer)” value was 1.9 ± 0.2; the “∆H” value was -8.9 kcal/mol and -8.9 ± 0.3 kcal/mol; the “∆S” value came to 4.6 ± 0.5; the Kd is 0.033 ± 0.009 µM. The compound also displayed a solubility in data set [5] greater than 500 µM.

The compound `COc1cc(C(=O)c2cc(C)cc(C)c2)cc([N+](=O)[O-])c1O` [Compound 1, (4-Hydroxy-3-methoxy-5-nitrophenyl)-1-(3,5-dimethylphenyl)methanone] yielded an EC50 in data set [1] of 410 ± 33 µM. In data set [2], the “1-Rm (membrane retention)” value is 0.9; the Papp worked out at 15.3 ×10⁻⁶ cm/s; the “CNS Class” value was “CNS+ (BBB+, Pe > 4 × 10^−6 cm/s)”; the “permeability … compared to tolcapone” value is recorded as 2.5 times. In data set [3] (Caco-2, pH 7.4, A→B), this compound came in with a recovery at 60 min, 10 µM of 64 ± 4%. The compound further came in with a recovery at 60 min, 10 µM in data set [3] (Caco-2, pH 7.4, B→A) of 77 ± 2%. In addition, in data set [3], the efflux ratio at 60 min, 10 μM was found to be 1; the Papp A→B at 60 min, 10 μM was found to be 24 ± 2.1 ×10⁻⁶ cm/s; the Papp B→A at 60 min, 10 μM was 23.1 ± 2.3 ×10⁻⁶ cm/s. In data set [4], the “CHI (pH 2.0)” value is 97.8, the “CHI (pH 7.4)” value is on record as 55.5 and the “CHI (pH 10.5)” value is 51.7. At TTR, the “n (stoichiometry of binding, ligand:TTR tetramer)” value amounted to 1.8 ± 0.1; the “∆H” value was -11.5 kcal/mol and -11.5 ± 1.3 kcal/mol; the “∆S” value is −2.9 ± 0.9; binding was put at a Kd of 0.071 ± 0.026 µM. Besides, the solubility in data set [5] was greater than 500 µM.

As for `COc1cc(C(=O)c2ccc(C)cc2C)cc([N+](=O)[O-])c1O` [Compound 2, (4-Hydroxy-3-methoxy-5-nitrophenyl)-1-(2,4-dimethylphenyl)methanone], the half-maximal effective concentration (EC50) in data set [1] was 216 ± 2.2 µM. Moreover, in data set [2], the “1-Rm (membrane retention)” value was determined as 1.0; the Papp turned out to be 13.5 ×10⁻⁶ cm/s; the “CNS Class” value is on record as “CNS+ (BBB+, Pe > 4 × 10^−6 cm/s)”; the “permeability … compared to tolcapone” value is 2.5 times. Also, in data set [3] (Caco-2, pH 7.4, A→B), the recovery at 60 min, 10 µM came to 69 ± 8%. In addition, the recovery at 60 min, 10 µM in data set [3] (Caco-2, pH 7.4, B→A) was 80 ± 9%. Besides, in data set [3], the efflux ratio at 60 min, 10 μM is 1; the Papp A→B at 60 min, 10 μM turned out to be 25 ± 0.3 ×10⁻⁶ cm/s; the Papp B→A at 60 min, 10 μM is 26.8 ± 2.5 ×10⁻⁶ cm/s. Besides, in data set [4], the “CHI (pH 2.0)” value stood at 96.1, the “CHI (pH 7.4)” value stood at 53.8 and the “CHI (pH 10.5)” value turned out to be 50.2. Further, at TTR, the “n (stoichiometry of binding, ligand:TTR tetramer)” value was 2.1 ± 0.3; the “∆H” value is -10.5 kcal/mol and -10.5 ± 0.2 kcal/mol; the “∆S” value is reported as −0.4 ± 0.1; the equilibrium dissociation constant (Kd) turned out to be 0.025 ± 0.005 µM. Further, the solubility in data set [5] is greater than 500 µM.

Source of the values: paper PMC10779086, “3-O-Methyltolcapone and Its Lipophilic Analogues Are Potent Inhibitors of Transthyretin Amyloidogenesis with High Permeability and Low Toxicity” (International Journal of Molecular Sciences, 2023).
